The text below walks through data of US9085555B2, “Complement pathway modulators and uses thereof” (priority 2011, dated 2015).

This assay deals with Factor D (Homo sapiens (Human), UniProt P00746). Kind of assay: biochemical. As to conditions: read-out: IC50. Type of assay: biochemical.

Structures are written as SMILES.

Factor D, sequence (P00746 26-253): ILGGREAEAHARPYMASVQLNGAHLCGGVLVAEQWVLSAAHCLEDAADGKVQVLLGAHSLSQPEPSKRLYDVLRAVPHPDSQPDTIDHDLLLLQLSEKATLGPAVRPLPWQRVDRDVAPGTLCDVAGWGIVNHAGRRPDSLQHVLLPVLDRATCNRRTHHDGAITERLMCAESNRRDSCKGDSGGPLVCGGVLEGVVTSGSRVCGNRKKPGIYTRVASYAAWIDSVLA

Regarding `C[C@H]1C[C@@H](C(=O)NCc2cccc(Cl)c2F)N(C(=O)Nc2cn(C(N)=O)c3ccccc23)C1` [Example 182, (2S,4S)-4-Methyl-pyrrolidine-1,2-dicarboxylic acid 1-[(1-carbamoyl-1H-indol-3-yl)-amide] 2-(3-chloro-2-fluoro-benzylamide)], the IC50 was found to be 63 nM.
`NC(=O)n1cc(NC(=O)N2C3CC3C[C@H]2C(=O)NCc2cccc(Cl)c2)c2ccccc21` (stereo partly drawn) [Example 183, (1R,3S,5R)-2-Aza-bicyclo[3.1.0]hexane-2,3-dicarboxylic acid 2-[(1-carbamoyl-1H-indol-3-yl)-amide] 3-(3-chloro-benzylamide)]: the IC50 amounted to 20 nM.
To `COC[C@@]12C[C@@H](C(=O)NCc3cccc(Cl)c3F)N(C(=O)Nc3cn(C(N)=O)c4ccccc34)[C@@H]1C2` [Example 184, (1R,3S,5S)-5-Methoxymethyl-2-aza-bicyclo[3.1.0]hexane-2,3-dicarboxylic acid 2-[(1-carbamoyl-1H-indol-3-yl)-amide] 3-(3-chloro-2-fluoro-benzylamide)] belongs 9 nM; to `NC(=O)n1cc(NC(=O)N2C3CC3C[C@H]2C(=O)Nc2ccncc2F)c2ccccc21` (stereo partly drawn) [Example 185, (1R,3S,5R)-2-Aza-bicyclo[3.1.0]hexane-2,3-dicarboxylic acid 2-[(1-carbamoyl-1H-indol-3-yl)-amide] 3-[(3-fluoro-pyridin-4-yl)-amide]], 550 nM.
For `CO[C@@H]1CCN(C(=O)Nc2cn(C(N)=O)c3ccccc23)[C@@H]1C(=O)NCc1cccc(Cl)c1F` [Example 186, (2S,3R)-3-Methoxy-pyrrolidine-1,2-dicarboxylic acid 1-[(1-carbamoyl-1H-indol-3-yl)-amide] 2-(3-chloro-2-fluoro-benzylamide)] the value was 20 nM; for `N#C[C@H]1C[C@@H](C(=O)Nc2cccc(OC(F)(F)F)c2F)N(C(=O)Nc2cn(C(N)=O)c3ccccc23)C1` [Example 188, (2S,4S)-4-cyano-pyrrolidine-1,2-dicarboxylic acid 1-[(1-carbamoyl-1H-indol-3-yl)-amide]2-[(2-fluoro-3-trifluoromethoxy-phenyl)-amide]], 1070 nM.
For `CN(C)[C@@H]1CN(C(=O)Nc2cn(C(N)=O)c3ccccc23)[C@H](C(=O)NCc2cccc(Cl)c2F)[C@H]1F` [Example 189, (2R,3S,4R)-4-Dimethylamino-3-fluoro-pyrrolidine-1,2-dicarboxylic acid 1-[(1-carbamoyl-1H-indol-3-yl)-amide] 2-(3-chloro-2-fluoro-benzylamide)] the value was 942 nM; for `NC(=O)n1cc(NC(=O)N2CC[C@@H](F)[C@H]2C(=O)NCc2cccc(Cl)c2F)c2ccccc21` [Example 190, (2R,3R)-3-Fluoro-pyrrolidine-1,2-dicarboxylic acid 1-[(1-carbamoyl-1H-indol-3-yl)-amide] 2-(3-chloro-2-fluoro-benzylamide)], 20 nM.
As for `C[C@@]1(C(=O)Nc2cccc(OC(F)(F)F)c2)CCCN1C(=O)Nc1cn(C(N)=O)c2ccccc12` [Example 192, (S)-2-Methyl-pyrrolidine-1,2-dicarboxylic acid 1-[(1-carbamoyl-1H-indol-3-yl)-amide] 2-[(3-trifluoromethoxy-phenyl)-amide]], the IC50 amounted to 17800 nM.
For `NC(=O)n1cc(NC(=O)N2C[C@H](F)C[C@H]2C(=O)Nc2cncc(Cl)c2)c2ccccc21` [Example 193, (2S,4R)-4-Fluoro-pyrrolidine-1,2-dicarboxylic acid 1-[(1-carbamoyl-1H-indol-3-yl)-amide] 2-[(5-chloro-pyridin-3-yl)-amide]] the value was 160 nM; for `NC(=O)n1cc(NC(=O)N2C[C@H](F)C[C@H]2C(=O)Nc2cncc(Br)c2)c2ccccc21` [Example 194, (2S,4R)-4-Fluoro-pyrrolidine-1,2-dicarboxylic acid 1-[(1-carbamoyl-1H-indol-3-yl)-amide] 2-[(5-bromo-pyridin-3-yl)-amide]], 93 nM; for `NC(=O)n1cc(NC(=O)N2[C@@H]3C[C@@H]3C[C@H]2C(=O)NCc2cccc(F)c2F)c2ccccc21` [Example 195, (1R,3S,5R)-2-Aza-bicyclo[3.1.0]hexane-2,3-dicarboxylic acid 2-[(1-carbamoyl-1H-indol-3-yl)-amide] 3-(2,3-difluoro-benzylamide)], 14 nM.
For `NC(=O)n1cc(NC(=O)N2C[C@@](O)(CO)C[C@H]2C(=O)NCc2cccc(Cl)c2F)c2ccccc21` [Example 196, (2S,4R)-4-Hydroxy-4-hydroxymethyl-pyrrolidine-1,2-dicarboxylic acid 1-[(1-carbamoyl-1H-indol-3-yl)-amide] 2-(3-chloro-2-fluoro-benzylamide)] the value was 700 nM; for `NC(=O)n1cc(NC(=O)N2C[C@H]3OC3[C@H]2C(=O)NCc2cccc(Cl)c2F)c2ccccc21` (stereo partly drawn) [Example 197, (1S,2S,5R)-6-Oxa-3-aza-bicyclo[3.1.0]hexane-2,3-dicarboxylic acid 3-[(1-carbamoyl-1H-indol-3-yl)-amide] 2-(3-chloro-2-fluoro-benzylamide)], 100 nM.
Turning to `COC(=O)c1cc(Br)cc(NC(=O)[C@@H]2SCCN2C(=O)Nc2cn(C(N)=O)c3ccccc23)c1` [Example 198, 3-Bromo-5-{[(S)-3-(1-carbamoyl-1H-indol-3-ylcarbamoyl)-thiazolidine-2-carbonyl]-amino}-benzoic acid methyl ester], the IC50 was 357 nM.
In the case of `Cn1nc(-c2ccccc2)cc1NC(=O)[C@@H]1CCCN1C(=O)Nc1cn(C(N)=O)c2ccccc12` [Example 199, (S)-Pyrrolidine-1,2-dicarboxylic acid 1-[(1-carbamoyl-1H-indol-3-yl)-amide] 2-[(2-methyl-5-phenyl-2H-pyrazol-3-yl)-amide]], the IC50 came to 8650 nM.
For `COC(=O)[C@H]1C[C@@H](C(=O)NCc2cccc(Cl)c2F)N(C(=O)Nc2cn(C(N)=O)c3ccccc23)C1` [Example 200, (3S,5S)-1-(1-Carbamoyl-1H-indol-3-ylcarbamoyl)-5-(3-chloro-2-fluoro-benzylcarbamoyl)-pyrrolidine-3-carboxylic acid methyl ester] the value was 25 nM; for `NC(=O)n1cc(NC(=O)N2C[C@](O)(CO)C[C@H]2C(=O)NCc2cccc(Cl)c2F)c2ccccc21` [Example 202, (2S,4S)-4-Hydroxy-4-hydroxymethyl-pyrrolidine-1,2-dicarboxylic acid 1-[(1-carbamoyl-1H-indol-3-yl)-amide] 2-(3-chloro-2-fluoro-benzylamide)], 450 nM.
As for `NC(=O)n1cc(NC(=O)N2[C@@H]3C[C@@H]3C[C@H]2C(=O)N[C@H](CO)c2cccc(Cl)c2F)c2ccccc21` [Example 203, (1R,3S,5R)-2-Aza-bicyclo[3.1.0]hexane-2,3-dicarboxylic acid 2-[(1-carbamoyl-1H-indol-3-yl)-amide] 3-{[(S)-1-(3-chloro-2-fluoro-phenyl)-2-hydroxy-ethyl]-amide}], the IC50 was 6 nM.
On to `CO[C@H]1[C@@H](C(=O)NCc2cccc(Cl)c2F)N(C(=O)Nc2cn(C(N)=O)c3ccccc23)C[C@@H]1F` [Example 204, (2S,3S,4S)-4-Fluoro-3-methoxy-pyrrolidine-1,2-dicarboxylic acid 1-[(1-carbamoyl-1H-indol-3-yl)-amide] 2-(3-chloro-2-fluoro-benzylamide)], for which the IC50 is 7 nM.
To `C[C@@]1(F)C[C@@H](C(=O)NCc2cccc(Cl)c2F)N(C(=O)Nc2cn(C(N)=O)c3ccccc23)C1` [Example 205, (2S,4R)-4-Fluoro-4-methyl-pyrrolidine-1,2-dicarboxylic acid 1-[(1-carbamoyl-1H-indol-3-yl)-amide] 2-(3-chloro-2-fluoro-benzylamide)] belongs 14 nM; to `CC(=O)N[C@H]1[C@@H](C(=O)NCc2cccc(Cl)c2F)N(C(=O)Nc2cn(C(N)=O)c3ccccc23)C[C@@H]1F` [Example 206, (2S,3S,4S)-3-Acetylamino-4-fluoro-pyrrolidine-1,2-dicarboxylic acid 1-[(1-carbamoyl-1H-indol-3-yl)-amide] 2-(3-chloro-2-fluoro-benzylamide)], 187 nM; to `NC(=O)n1cc(NC(=O)N2C[C@@H]3C[C@@H]3[C@H]2C(=O)N[C@H](CO)c2cccc(Cl)c2F)c2ccccc21` [Example 207, (1S,2S,5R)-3-Azabicyclo[3.1.0]hexane-2,3-dicarboxylic acid 3-[(1-carbamoyl-1H-indol-3-yl)-amide] 2-{[(S)-1-(3-chloro-2-fluoro-phenyl)-2-hydroxy-ethyl]-amide}], 321 nM.
To `NC(=O)n1cc(NC(=O)N2CC[C@H](F)[C@H]2C(=O)NCc2cccc(Cl)c2F)c2ccccc21` [Example 208, (2R,3S)-3-Fluoro-pyrrolidine-1,2-dicarboxylic acid 1-[(1-carbamoyl-1H-indol-3-yl)-amide] 2-(3-chloro-2-fluoro-benzylamide)] belongs 29 nM; to `NC(=O)n1cc(NC(=O)N2C[C@](F)(CN3CCOCC3)C[C@H]2C(=O)NCc2cccc(Cl)c2F)c2ccccc21` [Example 209, (2S,4R)-4-Fluoro-morpholin-4-ylmethyl-pyrrolidine-1,2-dicarboxylic acid 1-[(1-carbamoyl-1H-indol-3-yl)-amide] 2-(3-chloro-2-fluoro-benzylamide)], 1900 nM.
To `NC(=O)n1cc(NC(=O)N2C[C@H]3C[C@H]3[C@H]2C(=O)NCc2cccc(Cl)c2F)c2ccccc21` [Example 210, (1R,2S,5S)-3-Aza-bicyclo[3.1.0]hexane-2,3-dicarboxylic acid 3-[(1-carbamoyl-1H-indol-3-yl)-amide] 2-(3-chloro-2-fluoro-benzylamide)] belongs 22 nM; to `CC(=O)N[C@@H]1CN(C(=O)Nc2cn(C(N)=O)c3ccccc23)[C@H](C(=O)NCc2cccc(Cl)c2F)[C@H]1F` [Example 211, (2R,3S,4R)-4-Acetylamino-3-fluoro-pyrrolidine-1,2-dicarboxylic acid 1-[(1-carbamoyl-1H-indol-3-yl)-amide] 2-(3-chloro-2-fluoro-benzylamide)], 1320 nM.
On to `NC(=O)n1cc(NC(=O)N2C[C@H]3C[C@H]3[C@H]2C(=O)N[C@H](CO)c2cccc(Cl)c2F)c2ccccc21` [Example 212, (1R,2S,5S)-3-Azabicyclo[3.1.0]hexane-2,3-dicarboxylic acid 3-[(1-carbamoyl-1H-indol-3-yl)-amide] 2-{[(S)-1-(3-chloro-2-fluoro-phenyl)-2-hydroxy-ethyl]-amide}], for which the IC50 is 10 nM.
